# Experimental data taken from PMC5508536 (Bioorganic & medicinal chemistry letters, 2017).
# Columns and labels:
# [1] = molecular target: T1, rat M5 (Rattus norvegicus, UniProt P08911); assay: rat M5 intracellular calcium mobilization assay; format: cell-based
# T1 sequence (P08911 1-531): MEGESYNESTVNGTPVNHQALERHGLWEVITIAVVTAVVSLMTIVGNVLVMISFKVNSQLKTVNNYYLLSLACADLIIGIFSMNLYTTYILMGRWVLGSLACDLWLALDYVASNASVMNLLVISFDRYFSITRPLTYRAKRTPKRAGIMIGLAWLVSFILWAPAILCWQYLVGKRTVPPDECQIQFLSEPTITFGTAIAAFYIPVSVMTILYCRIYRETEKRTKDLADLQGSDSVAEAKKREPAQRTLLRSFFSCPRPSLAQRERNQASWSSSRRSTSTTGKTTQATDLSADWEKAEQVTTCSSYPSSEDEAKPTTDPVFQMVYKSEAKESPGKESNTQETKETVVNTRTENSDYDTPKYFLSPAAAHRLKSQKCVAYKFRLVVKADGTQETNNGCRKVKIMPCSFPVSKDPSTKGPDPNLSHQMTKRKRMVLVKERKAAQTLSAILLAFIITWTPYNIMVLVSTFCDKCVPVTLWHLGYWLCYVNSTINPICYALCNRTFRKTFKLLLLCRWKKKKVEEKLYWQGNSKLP
# [2] = cited from earlier work
# [3] = rat; cited from earlier work
smiles,measurement,setting,value
O=C(c1ccc(F)c(F)c1)N1CCN2C(=O)c3ccccc3[C@@]12c1ccc(N2CCCC(F)(F)C2)cc1 [4d],rat M5 potency relative to hM5,[1],≤ 2 fold
O=C(c1ccc(F)c(F)c1)N1CCN2C(=O)c3ccccc3[C@@]12c1ccc(N2CCC(F)(F)CC2)cc1 [4f],rat M5 potency relative to hM5,[1],≤ 2 fold
O=C(c1ccc(F)c(F)c1)N1CCN2C(=O)c3ccccc3[C@@]12c1ccc(Cl)cc1 [compound 1],elimination half-life t1/2,[2]; rat,80 h
COc1ccc([C@@]23c4ccccc4C(=O)N2CCN3C(=O)c2cc(F)c(F)c(F)c2)cc1C [compound 2],CNS penetration,[3],limited CNS penetration
same,CLp,[2]; rat PK,> 70 mL/min/kg
